From ChEMBL document CHEMBL1150708, “Isolation and bioactivity of new tanshinones” (1987)

Legend:
Type in all cases: functional
[1] = Antiplatelet activity against platelet assessed as inhibition of ADP-induced platelet aggregation at 50 ug/ml by turbidimetry
[2] = Antiplatelet activity against platelet assessed as inhibition of collagen-induced platelet aggregation at 50 ug/ml by turbidimetry
[3] = Antiplatelet activity against platelet assessed as inhibition of ADP-induced platelet aggregation at 10 ug/ml by turbidimetry
[4] = Antiplatelet activity against platelet assessed as inhibition of collagen-induced platelet aggregation at 10 ug/ml by turbidimetry
[5] = Antiplatelet activity against platelet assessed as inhibition of collagen-induced platelet aggregation at 5 ug/ml by turbidimetry

| SMILES | inhibition at 50 µg/mL [1] [%] | inhibition at 50 µg/mL [2] [%] | inhibition at 10 µg/mL [3] [%] | inhibition at 10 µg/mL [4] [%] | inhibition at 5 µg/mL [5] [%] |
| --- | --- | --- | --- | --- | --- |
| CC(=O)Oc1ccccc1C(=O)O [ASPIRIN] | 74 | 72 |  |  |  |
| Cc1coc2c1C(=O)c1ccc3c(c1C2=O)CCCC3(C)CO (stereo not given) [ISOTANSHINONE IIB] |  |  | 40 | 81 | 4 |
